In patent publication US20230085307A1, “PYRIDAZINONE COMPOUND AND HERBICIDE” (NISSAN CHEMICAL CORPORATION, priority 2019, published 2023):

Columns and labels:
late watergrass = assay: Test Example 1: herbicidal activity, application before weed generation under submerged conditions (Table 16, symbol A); assay type: in vivo, late watergrass (Echinochloa oryzicola)
In short: (§1)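 Emulsion formulation, water-diluted to set dose, was put onto the flooded surface (4 cm depth, alluvial soil) the same day weeds were sown and 2.5-leaf rice transplanted. After 3 weeks at 25-30 °C under glass, each species was rated 0 (≤5% kill) to 5 (≥90% kill).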

Japanese bulrush = assay: Test Example 1: herbicidal activity, application before weed generation under submerged conditions (Table 16, symbol B); assay type: in vivo, Japanese bulrush (Schoenoplectus juncoides)
In short: as §1

oval-leafed pondweed = assay: Test Example 1: herbicidal activity, application before weed generation under submerged conditions (Table 16, symbol C); assay type: in vivo, oval-leafed pondweed (Monochoria vaginalis)
In short: as §1

barnyard grass [1] = assay: Test Example 3: herbicidal effect by foliage application, Wagner pot (Table 18, symbol H); assay type: in vivo, barnyard grass (Echinochloa crus-galli)
In short: (§2)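 Plants were sown in alluvial soil held under 0.1–0.5 cm standing water and grown 14 days in a greenhouse at 25–30 °C. An emulsifiable formulation, water-diluted to the set dose, was then sprayed onto the foliage, and effects were scored three weeks later using previously defined criteria.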

Chinese sprangletop = assay: Test Example 3: herbicidal effect by foliage application, Wagner pot (Table 18, symbol D); assay type: in vivo, chinese sprangletop (Leptochloa chinensis)
In short: as §2

rice flat sedge = assay: Test Example 3: herbicidal effect by foliage application, Wagner pot (Table 18, symbol E); assay type: in vivo, rice flat sedge (Cyperus iria)
In short: as §2

southern crabgrass [2] = assay: Test Example 4: herbicidal effect by soil treatment (Table 19, symbol F); assay type: in vivo, southern crabgrass (Digitaria ciliaris)
In short: (§3)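 Pre-emergence style soil spray: seeds under ~1.5 cm sterilized diluvial soil received a uniform coat of emulsion diluted to the predetermined herbicide amount. Greenhouse 25–30° C; readout at week three on previously defined criteria.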

green foxtail [3] = assay: Test Example 4: herbicidal effect by soil treatment (Table 19, symbol G); assay type: in vivo, green foxtail (Setaria viridis)
In short: as §3

barnyard grass [4] = assay: Test Example 4: herbicidal effect by soil treatment (Table 19, symbol H); assay type: in vivo, barnyard grass (Echinochloa crus-galli)
In short: as §3

wild oat [5] = assay: Test Example 4: herbicidal effect by soil treatment (Table 19, symbol I); assay type: in vivo, wild oat (Avena fatua)
In short: as §3

blackgrass [6] = assay: Test Example 4: herbicidal effect by soil treatment (Table 19, symbol J); assay type: in vivo, blackgrass (Alopecurus myosuroides)
In short: as §3

Italian ryegrass [7] = assay: Test Example 4: herbicidal effect by soil treatment (Table 19, symbol K); assay type: in vivo, Italian ryegrass (Lolium multiflorum)
In short: as §3

windgrass [8] = assay: Test Example 4: herbicidal effect by soil treatment (Table 19, symbol L); assay type: in vivo, windgrass (Apera spica-venti)
In short: as §3

velvetleaf [9] = assay: Test Example 4: herbicidal effect by soil treatment (Table 19, symbol M); assay type: in vivo, velvetleaf (Abutilon theophrasti)
In short: as §3

redroot pigweed [10] = assay: Test Example 4: herbicidal effect by soil treatment (Table 19, symbol N); assay type: in vivo, redroot pigweed (Amaranthus retroflexus)
In short: as §3

lambsquarters [11] = assay: Test Example 4: herbicidal effect by soil treatment (Table 19, symbol O); assay type: in vivo, lambsquarters (Chenopodium album)
In short: as §3

chickweed [12] = assay: Test Example 4: herbicidal effect by soil treatment (Table 19, symbol P); assay type: in vivo, common chickweed (Stellaria media)
In short: as §3

persian speedwell [13] = assay: Test Example 4: herbicidal effect by soil treatment (Table 19, symbol R); assay type: in vivo, Persian speedwell (Veronica persica)
In short: as §3

southern crabgrass [14] = assay: Test Example 5: herbicidal effect by foliage application, plastic box (Table 20, symbol F); assay type: in vivo, southern crabgrass (Digitaria ciliaris); conditions: foliage application, three weeks after application
In short: (§4)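 Plants were sown into sterilized diluvial soil under about 1.5 cm cover and kept in a greenhouse at 25° C. to 30° C. Fourteen days on, foliage received an even spray of the diluted emulsion. Herbicidal or crop effect was judged three weeks afterwards.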

green foxtail [15] = assay: Test Example 5: herbicidal effect by foliage application, plastic box (Table 20, symbol G); assay type: in vivo, green foxtail (Setaria viridis); conditions: foliage application, three weeks after application
In short: as §4

barnyard grass [16] = assay: Test Example 5: herbicidal effect by foliage application, plastic box (Table 20, symbol H); assay type: in vivo, barnyard grass (Echinochloa crus-galli); conditions: foliage application, three weeks after application
In short: as §4

wild oat [17] = assay: Test Example 5: herbicidal effect by foliage application, plastic box (Table 20, symbol I); assay type: in vivo, wild oat (Avena fatua); conditions: foliage application, three weeks after application
In short: as §4

blackgrass [18] = assay: Test Example 5: herbicidal effect by foliage application, plastic box (Table 20, symbol J); assay type: in vivo, blackgrass (Alopecurus myosuroides); conditions: foliage application, three weeks after application
In short: as §4

Italian ryegrass [19] = assay: Test Example 5: herbicidal effect by foliage application, plastic box (Table 20, symbol K); assay type: in vivo, Italian ryegrass (Lolium multiflorum); conditions: foliage application, three weeks after application
In short: as §4

windgrass [20] = assay: Test Example 5: herbicidal effect by foliage application, plastic box (Table 20, symbol L); assay type: in vivo, windgrass (Apera spica-venti); conditions: foliage application, three weeks after application
In short: as §4

velvetleaf [21] = assay: Test Example 5: herbicidal effect by foliage application, plastic box (Table 20, symbol M); assay type: in vivo, velvetleaf (Abutilon theophrasti); conditions: foliage application, three weeks after application
In short: as §4

redroot pigweed [22] = assay: Test Example 5: herbicidal effect by foliage application, plastic box (Table 20, symbol N); assay type: in vivo, redroot pigweed (Amaranthus retroflexus); conditions: foliage application, three weeks after application
In short: as §4

lambsquarters [23] = assay: Test Example 5: herbicidal effect by foliage application, plastic box (Table 20, symbol O); assay type: in vivo, lambsquarters (Chenopodium album); conditions: foliage application, three weeks after application
In short: as §4

chickweed [24] = assay: Test Example 5: herbicidal effect by foliage application, plastic box (Table 20, symbol P); assay type: in vivo, common chickweed (Stellaria media); conditions: foliage application, three weeks after application
In short: as §4

persian speedwell [25] = assay: Test Example 5: herbicidal effect by foliage application, plastic box (Table 20, symbol R); assay type: in vivo, Persian speedwell (Veronica persica); conditions: foliage application, three weeks after application
In short: as §4

[26] = amount of applied herbicide 320 g/ha

CCCC(=O)Oc1c(C)nn(C)c(=O)c1-c1c(-c2ccc(F)c(F)c2)sc2ccccc12 [1-047]
Herbicidal effect on A: late watergrass (grade 0-5) (late watergrass; 320 g/ha applied herbicide): 3 (Herbicidal rate of 40% or more and less than 70%)
Herbicidal effect on B: Japanese bulrush (grade 0-5) (Japanese bulrush; 320 g/ha applied herbicide): 0 (Herbicidal rate of 5% or less (almost no effect))
Herbicidal effect on C: oval-leafed pondweed (grade 0-5) (oval-leafed pondweed; 320 g/ha applied herbicide): 0 (Herbicidal rate of 5% or less (almost no effect))
herbicidal effect on H (barnyard grass), rating 0-5 (barnyard grass [1]; 320 g/ha): 2 (Herbicidal rate of 20% or more and less than 40%)
herbicidal effect on D (Chinese sprangletop), rating 0-5 (Chinese sprangletop; 320 g/ha): 0 (Herbicidal rate of 5% or less (almost no effect))
herbicidal effect on E (rice flat sedge), rating 0-5 (rice flat sedge; 320 g/ha): 5 (Herbicidal rate of 90% or more (almost completely withered))
herbicidal effect rating, F: southern crabgrass (southern crabgrass [2]; [26]): 0 (Herbicidal rate of 5% or less (almost no effect))
herbicidal effect rating, G: green foxtail (green foxtail [3]; [26]): 2 (Herbicidal rate of 20% or more and less than 40%)
herbicidal effect rating, H: barnyard grass (barnyard grass [4]; [26]): 3 (Herbicidal rate of 40% or more and less than 70%)
herbicidal effect rating, I: wild oat (wild oat [5]; [26]): 0 (Herbicidal rate of 5% or less (almost no effect))
herbicidal effect rating, J: blackgrass (blackgrass [6]; [26]): 0 (Herbicidal rate of 5% or less (almost no effect))
herbicidal effect rating, K: Italian ryegrass (Italian ryegrass [7]; [26]): 0 (Herbicidal rate of 5% or less (almost no effect))
herbicidal effect rating, L: windgrass (windgrass [8]; [26]): 0 (Herbicidal rate of 5% or less (almost no effect))
herbicidal effect rating, M: velvetleaf (velvetleaf [9]; [26]): 0 (Herbicidal rate of 5% or less (almost no effect))
herbicidal effect rating, N: redroot pigweed (redroot pigweed [10]; [26]): 0 (Herbicidal rate of 5% or less (almost no effect))
herbicidal effect rating, O: lambsquarters (lambsquarters [11]; [26]): 3 (Herbicidal rate of 40% or more and less than 70%)
herbicidal effect rating, P: chickweed (chickweed [12]; [26]): 5 (Herbicidal rate of 90% or more (almost completely withered))
herbicidal effect rating, R: persian speedwell (persian speedwell [13]; [26]): 5 (Herbicidal rate of 90% or more (almost completely withered))
herbicidal effect grade, F: southern crabgrass (southern crabgrass [14]; 320 g/ha): 0 (Herbicidal rate of 5% or less (almost no effect))
herbicidal effect grade, G: green foxtail (green foxtail [15]; 320 g/ha): 0 (Herbicidal rate of 5% or less (almost no effect))
herbicidal effect grade, H: barnyard grass (barnyard grass [16]; 320 g/ha): 0 (Herbicidal rate of 5% or less (almost no effect))
herbicidal effect grade, I: wild oat (wild oat [17]; 320 g/ha): 0 (Herbicidal rate of 5% or less (almost no effect))
herbicidal effect grade, J: blackgrass (blackgrass [18]; 320 g/ha): 0 (Herbicidal rate of 5% or less (almost no effect))
herbicidal effect grade, K: Italian ryegrass (Italian ryegrass [19]; 320 g/ha): 0 (Herbicidal rate of 5% or less (almost no effect))
herbicidal effect grade, L: windgrass (windgrass [20]; 320 g/ha): 0 (Herbicidal rate of 5% or less (almost no effect))
herbicidal effect grade, M: velvetleaf (velvetleaf [21]; 320 g/ha): 5 (Herbicidal rate of 90% or more (almost completely withered))
herbicidal effect grade, N: redroot pigweed (redroot pigweed [22]; 320 g/ha): 3 (Herbicidal rate of 40% or more and less than 70%)
herbicidal effect grade, O: lambsquarters (lambsquarters [23]; 320 g/ha): 3 (Herbicidal rate of 40% or more and less than 70%)
herbicidal effect grade, P: chickweed (chickweed [24]; 320 g/ha): 5 (Herbicidal rate of 90% or more (almost completely withered))
herbicidal effect grade, R: persian speedwell (persian speedwell [25]; 320 g/ha): 3 (Herbicidal rate of 40% or more and less than 70%)

C=Cc1ccc(-c2sc3ccccc3c2-c2c(OC(=O)CCC)c(C)nn(C)c2=O)cc1 [1-128]
Herbicidal effect on A: late watergrass (grade 0-5) (late watergrass; 246 g/ha applied herbicide): 0 (Herbicidal rate of 5% or less (almost no effect))
Herbicidal effect on B: Japanese bulrush (grade 0-5) (Japanese bulrush; 246 g/ha applied herbicide): 5 (Herbicidal rate of 90% or more (almost completely withered))
Herbicidal effect on C: oval-leafed pondweed (grade 0-5) (oval-leafed pondweed; 246 g/ha applied herbicide): 5 (Herbicidal rate of 90% or more (almost completely withered))
herbicidal effect on H (barnyard grass), rating 0-5 (barnyard grass [1]; 246 g/ha): 4 (Herbicidal rate of 70% or more and less than 90%)
herbicidal effect on D (Chinese sprangletop), rating 0-5 (Chinese sprangletop; 246 g/ha): 5 (Herbicidal rate of 90% or more (almost completely withered))
herbicidal effect on E (rice flat sedge), rating 0-5 (rice flat sedge; 246 g/ha): 3 (Herbicidal rate of 40% or more and less than 70%)
F: southern crabgrass, herbicidal effect rating (southern crabgrass [2]; AAH 246 g/ha): 0 (Herbicidal rate of 5% or less (almost no effect))
G: green foxtail, herbicidal effect rating (green foxtail [3]; AAH 246 g/ha): 0 (Herbicidal rate of 5% or less (almost no effect))
H: barnyard grass, herbicidal effect rating (barnyard grass [4]; AAH 246 g/ha): 0 (Herbicidal rate of 5% or less (almost no effect))
I: wild oat, herbicidal effect rating (wild oat [5]; AAH 246 g/ha): 0 (Herbicidal rate of 5% or less (almost no effect))
J: blackgrass, herbicidal effect rating (blackgrass [6]; AAH 246 g/ha): 0 (Herbicidal rate of 5% or less (almost no effect))
K: Italian ryegrass, herbicidal effect rating (Italian ryegrass [7]; AAH 246 g/ha): 2 (Herbicidal rate of 20% or more and less than 40%)
L: windgrass, herbicidal effect rating (windgrass [8]; AAH 246 g/ha): 0 (Herbicidal rate of 5% or less (almost no effect))
M: velvetleaf, herbicidal effect rating (velvetleaf [9]; AAH 246 g/ha): 0 (Herbicidal rate of 5% or less (almost no effect))
N: redroot pigweed, herbicidal effect rating (redroot pigweed [10]; AAH 246 g/ha): 4 (Herbicidal rate of 70% or more and less than 90%)
O: lambsquarters, herbicidal effect rating (lambsquarters [11]; AAH 246 g/ha): 0 (Herbicidal rate of 5% or less (almost no effect))
P: chickweed, herbicidal effect rating (chickweed [12]; AAH 246 g/ha): 3 (Herbicidal rate of 40% or more and less than 70%)
R: persian speedwell, herbicidal effect rating (persian speedwell [13]; AAH 246 g/ha): 3 (Herbicidal rate of 40% or more and less than 70%)
F: southern crabgrass, herbicidal effect (southern crabgrass [14]; AAH 246 g/ha): 0 (Herbicidal rate of 5% or less (almost no effect))
G: green foxtail, herbicidal effect (green foxtail [15]; AAH 246 g/ha): 0 (Herbicidal rate of 5% or less (almost no effect))
H: barnyard grass, herbicidal effect (barnyard grass [16]; AAH 246 g/ha): 1 (Herbicidal rate of 5% or more and less than 20%)
I: wild oat, herbicidal effect (wild oat [17]; AAH 246 g/ha): 1 (Herbicidal rate of 5% or more and less than 20%)
J: blackgrass, herbicidal effect (blackgrass [18]; AAH 246 g/ha): 3 (Herbicidal rate of 40% or more and less than 70%)
K: Italian ryegrass, herbicidal effect (Italian ryegrass [19]; AAH 246 g/ha): 4 (Herbicidal rate of 70% or more and less than 90%)
L: windgrass, herbicidal effect (windgrass [20]; AAH 246 g/ha): 4 (Herbicidal rate of 70% or more and less than 90%)
M: velvetleaf, herbicidal effect (velvetleaf [21]; AAH 246 g/ha): 4 (Herbicidal rate of 70% or more and less than 90%)
N: redroot pigweed, herbicidal effect (redroot pigweed [22]; AAH 246 g/ha): 5 (Herbicidal rate of 90% or more (almost completely withered))
O: lambsquarters, herbicidal effect (lambsquarters [23]; AAH 246 g/ha): 4 (Herbicidal rate of 70% or more and less than 90%)
P: chickweed, herbicidal effect (chickweed [24]; AAH 246 g/ha): 5 (Herbicidal rate of 90% or more (almost completely withered))
R: persian speedwell, herbicidal effect (persian speedwell [25]; AAH 246 g/ha): 5 (Herbicidal rate of 90% or more (almost completely withered))
